Legend:
[1] = target: T1, CYP26A (P450RAI-1) (Homo sapiens, UniProt O43174); assay: Cell-based inhibition of RA metabolism in CYP26A stably transfected HeLa cells; details: stably transfected HeLa cells, [3H]-RA, 3 hours at 37° C.; read-out: P450RAI-1 Whole cell IC50
T1 construct: expressed in transfected cells; host or cells: HeLa
T1 sequence (O43174 1-497): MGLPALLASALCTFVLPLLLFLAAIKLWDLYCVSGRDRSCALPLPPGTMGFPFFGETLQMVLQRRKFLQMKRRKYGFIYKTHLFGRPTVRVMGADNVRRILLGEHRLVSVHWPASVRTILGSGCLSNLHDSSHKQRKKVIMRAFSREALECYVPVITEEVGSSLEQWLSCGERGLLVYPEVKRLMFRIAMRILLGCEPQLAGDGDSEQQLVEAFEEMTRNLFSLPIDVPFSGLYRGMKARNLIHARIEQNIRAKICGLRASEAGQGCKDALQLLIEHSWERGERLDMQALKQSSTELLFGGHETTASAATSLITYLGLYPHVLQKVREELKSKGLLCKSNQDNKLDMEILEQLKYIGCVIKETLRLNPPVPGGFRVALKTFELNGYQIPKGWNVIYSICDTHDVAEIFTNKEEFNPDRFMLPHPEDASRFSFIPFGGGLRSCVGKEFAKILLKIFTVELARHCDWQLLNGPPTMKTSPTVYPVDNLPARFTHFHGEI
Protocol: (§1) In brief, CYP26A or CYP26B can be stably transfected into HeLa cells. Exponentially growing cells are harvested by incubating in trypsin. Cells are then washed and plated in a 48-well plate at 5×10^5 cells in 0.2 ml MEM medium containing 10% FBS and 0.05 μCi [^3H]-RA in the presence or absence of increasing concentrations of the test compounds. The compounds are diluted in 100% DMSO and then added in triplicate wells at either 10, 1 or 0.1 μM final concentration. As a positive control for RA metabolism inhibition, cells are also incubated with ketoconazole at 100, 10 and 1 μM. Cells are incubated for 3 hours at 37 degrees C. The retinoids are then extracted using the procedure of Bligh et al., Canadian Journal of Biochemistry 37: 911-917 (1959), modified by using methylenechloride instead of chloroform. This publication by Bligh et al., is specifically incorporated herein by reference. The water soluble radioactivity is quantified using a β scintillation counter, and IC50 values are determined.
(§2) CYP26A and CYP26B stably transfected HeLa cells were maintained in 100 mm tissue culture dishes in MEM medium containing 10% FBS and 100 μg/ml hygromycin.
(§3) Exponentially growing cells were harvested by incubating in trypsin. Cells were then washed with 1×PBS and plated in a 48-well plate at 5×10^5 cells in 0.2 ml MEM medium containing 10% FBS and 0.05 μCi [^3H]-RA in the presence or absence of increasing concentrations of the test compounds. The compounds were diluted in 100% DMSO and then added to triplicate wells at final concentrations of 10, 1 or 0.1 μM. As a positive control for RA metabolism inhibition, cells were also incubated with ketoconazole at 100, 10 and 1 μM. Cells were incubated for 3 hours at 37° C. The retinoids were then extracted using a modified Bligh and Dyer procedure (Bligh and Dyer, supra (1959)), in which methylene-chloride, as opposed to chloroform, was used, and the aqueous soluble radioactivity quantified using a β-scintillation counter. ID50 values represent the concentration of inhibitor required to inhibit RA metabolism by 50 percent and were derived manually from log-transformed data.

[2] = target: T2, CYP26B (P450RAI-2) (Homo sapiens, UniProt Q9NR63); assay: Cell-based inhibition of RA metabolism in CYP26B stably transfected HeLa cells; details: stably transfected HeLa cells, [3H]-RA, 3 hours at 37° C.; read-out: P450RAI-2 Whole cell IC50
T2 construct: expressed in transfected cells; host or cells: HeLa
T2 sequence (Q9NR63 1-512): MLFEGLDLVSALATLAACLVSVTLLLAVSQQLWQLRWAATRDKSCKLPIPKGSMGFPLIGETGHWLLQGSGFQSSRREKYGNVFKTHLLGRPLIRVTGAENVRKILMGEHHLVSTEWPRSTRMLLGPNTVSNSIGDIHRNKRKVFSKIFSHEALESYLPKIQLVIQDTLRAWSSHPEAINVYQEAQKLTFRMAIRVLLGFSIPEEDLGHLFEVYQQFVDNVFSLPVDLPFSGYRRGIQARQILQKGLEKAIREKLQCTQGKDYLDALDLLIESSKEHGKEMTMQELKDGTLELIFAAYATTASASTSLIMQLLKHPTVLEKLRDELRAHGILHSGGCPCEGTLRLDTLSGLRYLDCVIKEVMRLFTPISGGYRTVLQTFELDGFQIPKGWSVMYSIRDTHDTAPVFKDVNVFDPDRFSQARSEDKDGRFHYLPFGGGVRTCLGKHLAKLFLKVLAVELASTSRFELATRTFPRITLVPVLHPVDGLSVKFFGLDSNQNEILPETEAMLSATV
Protocol: as §1, §2, §3

[3] = target: T3, RAR α (Homo sapiens, UniProt P10276); assay: RAR α Kd; format: binding; details: last item of cell EC50/(EFFICACY)/Kd
T3 sequence (P10276 1-462): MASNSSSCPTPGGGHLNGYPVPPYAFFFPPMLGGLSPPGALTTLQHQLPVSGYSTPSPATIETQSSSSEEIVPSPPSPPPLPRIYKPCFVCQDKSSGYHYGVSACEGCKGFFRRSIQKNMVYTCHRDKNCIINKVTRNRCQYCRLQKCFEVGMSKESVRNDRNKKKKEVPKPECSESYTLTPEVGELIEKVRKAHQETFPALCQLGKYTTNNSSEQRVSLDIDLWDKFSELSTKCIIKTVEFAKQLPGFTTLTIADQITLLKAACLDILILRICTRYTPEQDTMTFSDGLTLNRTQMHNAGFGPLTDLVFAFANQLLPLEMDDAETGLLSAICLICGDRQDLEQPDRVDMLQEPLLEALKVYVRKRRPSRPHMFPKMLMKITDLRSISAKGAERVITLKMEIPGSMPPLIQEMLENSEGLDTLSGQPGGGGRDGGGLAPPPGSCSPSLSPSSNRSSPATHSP

[4] = target: T4, RAR β (Homo sapiens, UniProt P10826); assay: RAR β Kd; format: binding; details: last item of cell EC50/(EFFICACY)/Kd
T4 sequence (P10826 1-455): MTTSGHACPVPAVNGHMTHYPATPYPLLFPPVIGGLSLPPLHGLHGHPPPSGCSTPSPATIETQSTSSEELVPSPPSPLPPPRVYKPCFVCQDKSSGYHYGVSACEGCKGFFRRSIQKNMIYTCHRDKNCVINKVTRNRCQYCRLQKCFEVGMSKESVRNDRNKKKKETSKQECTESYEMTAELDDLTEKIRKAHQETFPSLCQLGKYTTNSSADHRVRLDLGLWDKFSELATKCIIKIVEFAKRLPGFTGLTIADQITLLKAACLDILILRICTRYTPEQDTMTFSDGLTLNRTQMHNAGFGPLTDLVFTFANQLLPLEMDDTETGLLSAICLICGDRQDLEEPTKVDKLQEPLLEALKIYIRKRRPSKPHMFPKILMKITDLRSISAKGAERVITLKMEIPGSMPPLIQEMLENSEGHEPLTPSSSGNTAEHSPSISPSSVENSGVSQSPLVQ

[5] = target: T5, RAR γ (Homo sapiens, UniProt P13631); assay: RAR γ Kd; format: binding; details: last item of cell EC50/(EFFICACY)/Kd
T5 sequence (P13631 1-454): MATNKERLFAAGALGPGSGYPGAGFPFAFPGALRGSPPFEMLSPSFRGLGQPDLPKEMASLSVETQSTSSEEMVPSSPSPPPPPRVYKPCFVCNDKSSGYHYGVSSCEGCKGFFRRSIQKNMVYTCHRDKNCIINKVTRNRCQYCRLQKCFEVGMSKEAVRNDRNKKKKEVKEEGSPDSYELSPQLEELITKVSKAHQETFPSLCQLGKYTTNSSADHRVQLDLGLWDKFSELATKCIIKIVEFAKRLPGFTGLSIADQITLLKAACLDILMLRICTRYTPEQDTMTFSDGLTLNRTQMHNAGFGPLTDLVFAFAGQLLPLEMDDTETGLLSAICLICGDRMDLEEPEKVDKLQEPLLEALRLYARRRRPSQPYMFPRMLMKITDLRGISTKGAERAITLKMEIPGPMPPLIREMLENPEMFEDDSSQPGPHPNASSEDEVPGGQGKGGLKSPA

Compound | IC50 [1] [µM] | IC50 [2] [µM] | Kd [3] [µM] | Kd [4] [µM] | Kd [5] [µM]
CN(C1CC1)C1CCC(C)(C)c2cc(C#Cc3ccc(C(C)(C)C(=O)O)cc3)cc(C3CC3)c21 (centres unmarked) [Compound 50, 2-{4-[4-Cyclopropyl-5-(cyclopropyl-methyl-amino)-8,8-dimethyl-5,6,7,8-tetrahydro-naphthalen-2-ylethynyl]-phenyl}-2-methyl-propionic acid] | 0.1 | > 10 | > 10 | > 10 | > 10
C#Cc1cc(C#Cc2ccc(CC(=O)O)c(F)c2)cc(C(=O)OC(C)C)c1 [Compound 61, 3-(4-Carboxymethyl-3-fluoro-phenylethynyl)-5-ethynyl-benzoic acid isopropyl ester] | 0.22 | 8.1 | > 10 | > 10 | > 10
CC(C)Oc1cc(C#Cc2ccc(CC(=O)O)cc2)cc2c1OC(C)(C)CC2(C)C [Compound 13, [4-(8-Isopropoxy-2,2,4,4-tetramethyl-chroman-6-ylethynyl)-phenyl]-acetic acid] | 0.06 | 8 | 0.397 | > 10 | > 10
CN(C1CC1)C1CCC(C)(C)c2cc(NC(=O)Nc3ccc(C(=O)O)cc3)ccc21 (centres unmarked) [Compound 21, 4-{3-[5-(Cyclopropyl-methyl-amino)-8,8-dimethyl-5,6,7,8-tetrahydro-naphthalen-2-yl]-ureido}-benzoic acid] | > 10 | 0.7 | > 10 | > 10 | > 10
CC(C)OC(=O)c1ccc(C#Cc2ccc(CC(=O)O)c(F)c2)cc1CN(C)C1CC1 [Compound 39, 4-(4-Carboxymethyl-3-fluoro-phenylethynyl)-2-[(cyclopropyl-methyl-amino)-methyl]-benzoic acid isopropyl ester] | 2.5 | > 10 | > 10 | > 10 | > 10
C/C(=C/C(=O)O)c1ccc(C#Cc2cccc(CN(C)C3CC3)c2)cc1 [Compound 32, 3-(4-{3-[(Cyclopropyl-methyl-amino)-methyl]-phenylethynyl}-phenyl)-but-2-enoic acid] | 0.44 | > 10 | > 10 | > 10 | > 10
CC1(C)CC2(CC2)Oc2c(C3CC3)cc(C#Cc3ccc(C(C)(C)C(=O)O)cc3)cc21 [Compound 2, 2-{4-[(8-Cyclopropyl-3,4-dihydro-4,4-dimethylspiro[2H-1-benzopyran-2,1′-cyclopropane]-6-yl)ethynyl]-phenyl}-2-methyl-propionic acid] | 0.03 | > 10 | 0.558 | 3.44 | 5.58
CC(C)OC(=O)c1ccc(C#Cc2ccc(C(C)C(=O)O)cc2)cc1CN(C)C1CC1 (centres unmarked) [Compound 40, 4-[4-(1-Carboxy-ethyl)-phenylethynyl]-2-[(cyclopropyl-methyl-amino)-methyl]-benzoic acid isopropyl ester] | 1.3 | > 10 | > 10 | > 10 | > 10
COc1cc(C#Cc2ccc(C(C)(C)C(=O)O)cc2)cc2c1C(N(C)C1CC1)CCC2(C)C (centres unmarked) [Compound 28, 2-{4-[5-(Cyclopropyl-methyl-amino)-4-methoxy-8,8-dimethyl-5,6,7,8-tetrahydro-naphthalen-2-ylethynyl]-phenyl}-2-methyl-propionic acid] | 0.25 | > 10 | > 10 | > 10 | 4.2
CC(C(=O)O)c1ccc(C#Cc2cc(C3CC3)c3c(c2)C(C)(C)CC2(CC2)O3)cc1 (centres unmarked) [Compound 1, 2-{4-[(8-Cyclopropyl-3,4-dihydro-4,4-dimethylspiro[2H-1-benzopyran-2,1′-cyclopropane]-6-yl)ethynyl]-phenyl}-propionic acid] | 0.009 | 8 | 2.09 | 3.02 | 3.49

From patent US7468391B2, “Methods for treating retinoid responsive disorders using selective inhibitors of CYP26A and CYP26B” (Allergan, Inc., priority 2003, dated 2008)
